ChEMBL document CHEMBL4680129, “Hit-to-lead optimization of novel 2-alkylaminomethylquinoline derivatives as anti-chagas agents” (Eur J Med Chem, 2020)
Activity calls are given as the source filed them. The rule behind the calls is not given here.

Key:
[1] = Selectivity index, ratio of CC50 African green monkey Vero cells to IC50 for Trypanosoma cruzi epimastigotes; type: toxicity; conditions: read-out: Selectivity Index
[2] = tested on: Trypanosoma cruzi; experiment: Antitrypanosomal activity against bloodstream Trypanosoma cruzi trypomastigotes measured after 24 hrs by Neubauer chamber method; type: functional, organism-based
[3] = Selectivity index, ratio of CC50 African green monkey Vero cells to IC50 for Trypanosoma cruzi trypomastigotes; type: toxicity; conditions: read-out: Selectivity Index
[4] = tested on: Trypanosoma cruzi; experiment: Antitrypanosomal activity against Trypanosoma cruzi epimastigotes measured after 72 hrs by Neubauer hemocytometer counting method; type: functional, organism-based
[5] = Cytotoxicity against African green monkey Vero cells assessed as reduction in cell viability measured after 24 hrs by MTT assay; type: cell-based; conditions: chlorocebus sabaeus
[6] = Selectivity index, ratio of CC50 African green monkey Vero cells to IC50 for Trypanosoma cruzi amastigotes; type: toxicity; conditions: read-out: Selectivity Index
[7] = tested on: Trypanosoma cruzi; experiment: Anti-chagasic activity against Trypanosoma cruzi trypomastigotes infected in C3H mouse assessed as reduction in parasitemia at 10 mg/kg, po treated 10 days post infection for 7 consecutive days by Neubauer chamber counting method relative to control; type: functional; set-up: scale not given: the % may be the effect or the level left; conditions: time 7 day
[8] = tested on: Trypanosoma cruzi; experiment: Antitrypanosomal activity against […] expressing beta-galactosidase infected in african green monkey VERO cells incubated for 5 days measured by microplate reader assay; type: functional, organism-based; conditions: 120 h
[9] = tested on: Trypanosoma cruzi; experiment: Anti-chagasic activity against Trypanosoma cruzi trypomastigotes infected in C3H mouse assessed as increase in body weight at 10 mg/kg, po treated 10 days post infection measured on day 19 (reference value: -1.8%); type: functional; conditions: time 9.0 day
[10] = Toxicity in C3H mouse infected with Trypanosoma cruzi trypomastigotes assessed as mortality at 10 to 50 mg/kg, po treated 10 days post infection for 7 consecutive days; type: organism-based; conditions: in vivo, 168 h, dose 10-50 mg/kg, time 7 day
[11] = tested on: Trypanosoma cruzi; experiment: Anti-chagasic activity against Trypanosoma cruzi trypomastigotes infected in C3H mouse assessed as well-groomed fur and alert at 10 mg/kg, po treated 10 days post infection measured on day 19; type: functional, organism-based; conditions: time 9.0 day
[12] = tested on: Trypanosoma cruzi; experiment: Anti-chagasic activity against Trypanosoma cruzi trypomastigotes infected in C3H mouse assessed as active behaviour at 10 mg/kg, po treated 10 days post infection measured on day 19; type: functional, organism-based; conditions: time 9.0 day
[13] = tested on: Trypanosoma cruzi; experiment: Anti-chagasic activity against Trypanosoma cruzi trypomastigotes infected in C3H mouse assessed as physically healthy with shiny appearance at 10 mg/kg, po treated 10 days post infection measured on day 19; type: functional, organism-based; conditions: time 9.0 day
[14] = tested on: Trypanosoma cruzi; experiment: Anti-chagasic activity against Trypanosoma cruzi trypomastigotes infected in C3H mouse assessed as reduction in parasitemia at 50 mg/kg, po treated 10 days post infection for 7 consecutive days by Neubauer chamber counting method relative to control; type: functional; conditions: time 7.0 day

SMILES | selectivity ratio [1] | IC50 [2] | selectivity ratio [3] | IC50 [4] | CC50 at 24 h [5] | selectivity ratio [6] | Activity [7] | IC50 [8] | Activity [9] | Activity [10] | Activity [11] | Activity [12] | Activity [13] | Activity [14]
O=C(O)c1c(CN2CCN(CCO)CC2)nc2ccc(Cl)cc2c1-c1ccccc1 | 8.6 | 56.1 µM | 0.6 | 4.2 µM | 36 µM |  |  |  |  |  |  |  |  | 
O=C(Cn1ccnc1[N+](=O)[O-])NCc1ccccc1 [BENZNIDAZOLE] | 122 | 34.1 µM | 20.7 | 5.8 µM | 706 µM | 196 | 58.9% | 3.6 µM | inactive | Non-Toxic | Active | Active | Active | inactive
O=C(O)c1c(CNCCN2CCOCC2)nc2ccc(Cl)cc2c1-c1ccccc1 | 19.7 | 11.9 µM | 18.5 | 11.2 µM | 221 µM |  |  |  |  |  |  |  |  | 
